Here are results for 1 compound from patent US20240287007A1, “N-(1,3,4-OXADIAZOL-2-YL)PHENYLCARBOXAMIDES AS HERBICIDES” (BAYER AKTIENGESELLSCHAFT, priority 2021, published 2024).

Assay type in all cases: in vivo
For assay [1], the system named is AMARE (Amaranthus retroflexus). The assay is described as follows: Post-emergence herbicidal action against AMARE. To be noted: visual assessment after about 3 weeks. The procedure: (§1) Seeds of monocotyledonous and dicotyledonous weed and crop plants are laid out in sandy loam soil in wood-fiber pots, covered with soil and cultivated in a greenhouse under good growth conditions. 2 to 3 weeks after sowing, the trial plants are treated at the one-leaf stage. The compounds of the invention, formulated in the form of wettable powders (WP) or as emulsion concentrates (EC), are then sprayed onto the green parts of the plants as aqueous suspension or emulsion at a water application rate equating to 600 to 800 l/ha with addition of 0.2% wetting agent. After the test plants have been left to stand in the greenhouse under optimal growth conditions for about 3 weeks, the action of the preparations is assessed visually in comparison to untreated controls (herbicidal action in percent (%): 100% activity=the plants have died, 0% activity=like control plants).

Assay [2] deals with SETVI (Setaria viridis). Kind of assay: Post-emergence herbicidal action against SETVI. As to conditions: visual assessment after about 3 weeks. As for the experimental part:
as §1

Assay [3] has as its system VIOTR (Viola tricolor). The assay is described as follows: Post-emergence herbicidal action against VIOTR. As to conditions: visual assessment after about 3 weeks. The procedure: as §1
The test system of assay [4] is VIOTR (Viola tricolor). The assay is described as follows: Pre-emergence herbicidal effect against VIOTR. To be noted: scored visually after 3 weeks. The text has this:
(§2) Seeds of monocotyledonous and dicotyledonous weed plants and crop plants are laid out in sandy loam soil in wood-fiber pots and covered with soil. The compounds of the invention, formulated in the form of wettable powders (WP) or as emulsion concentrates (EC), are then applied to the surface of the covering soil as aqueous suspension or emulsion at a water application rate equating to 600 to 800 l/ha with addition of 0.2% wetting agent. After the treatment, the pots are placed in a greenhouse and kept under good growth conditions for the trial plants. The damage to the test plants is scored visually after a test period of 3 weeks by comparison with untreated controls (herbicidal activity in percent (%): 100% activity=the plants have died, 0% activity=like control plants).

Assay [5] relates to DIGSA (Digitaria sanguinalis). The assay is described as follows: Post-emergence herbicidal action against DIGSA. To be noted: visual assessment after about 3 weeks. As for the experimental part: as §1
Assay [6] relates to ECHCG (Echinochloa crus-galli). The assay is described as follows: Pre-emergence herbicidal effect against ECHCG. To be noted: 80 g/ha, scored visually after 3 weeks.
Excerpt: as §2

Assay [7] relates to AMARE (Amaranthus retroflexus). Kind of assay: Pre-emergence herbicidal effect against AMARE. As to conditions: scored visually after 3 weeks.
Excerpt: as §2

Assay [8] concerns SETVI (Setaria viridis). The assay is described as follows: Pre-emergence herbicidal effect against SETVI. As to conditions: 80 g/ha, scored visually after 3 weeks.
Excerpt: as §2

Assay [9] has as its system KCHSC (Kochia scoparia). The assay is described as follows: Post-emergence herbicidal action against KCHSC. As to conditions: visual assessment after about 3 weeks. As for the experimental part:
as §1

Assay [10] deals with ABUTH (Abutylon threophrasti). Kind of assay: Pre-emergence herbicidal effect against ABUTH. As to conditions: 80 g/ha, scored visually after 3 weeks.
Excerpt: as §2

Assay [11] has as its system ABUTH (Abutylon threophrasti). Kind of assay: Post-emergence herbicidal action against ABUTH. To be noted: 80 g/ha, visual assessment after about 3 weeks. As for the experimental part:
as §1

Assay [12] deals with POLCO (Polygonum convolvulus). The assay is described as follows: Pre-emergence herbicidal effect against POLCO. To be noted: 80 g/ha, scored visually after 3 weeks.
Excerpt: as §2

Assay [13] relates to KCHSC (Kochia scoparia). The assay is described as follows: Pre-emergence herbicidal effect against KCHSC. To be noted: scored visually after 3 weeks.
Excerpt: as §2

Assay [14] has as its system DIGSA (Digitaria sanguinalis). Kind of assay: Pre-emergence herbicidal effect against DIGSA. To be noted: scored visually after 3 weeks.
Excerpt: as §2

Each structure is given as a SMILES string.

As to `CSc1c(OC(F)F)ccc(C(=O)Nc2nnco2)c1Cl` [Example 1-21, 2-chloro-4-(difluoromethoxy)-3-(methylsulfanyl)-N-(1,3,4-oxadiazol-2-yl)benzamide], in assay [1] (20 g/ha), the “Post-emergence effect at 20 g/ha against AMARE in %” value is 100%. Also, the “Post-emergence effect at 80 g/ha against AMARE in %” value in assay [1] (80 g/ha) turned out to be 100%. In addition, in [2] (20 g/ha), the “Post-emergence effect at 20 g/ha against SETVI in %” value is given as 80%. Besides, the “Post-emergence effect at 80 g/ha against SETVI in %” value in [2] (80 g/ha) came to 100%. Also, the “Post-emergence effect at 20 g/ha against VIOTR in %” value in assay [3] (20 g/ha) is given as 100%. Also, the “Post-emergence effect at 80 g/ha against VIOTR in %” value in assay [3] (80 g/ha) came out at 100%. For the same compound, in assay [4] (20 g/ha), the “Pre-emergence effect at 20 g/ha against VIOTR in %” value is given as 100%. In assay [4] (80 g/ha), the “Pre-emergence effect at 80 g/ha against VIOTR in %” value is reported as 100%. In addition, the “Post-emergence effect at 20 g/ha against DIGSA in %” value in assay [5] (20 g/ha) was determined as 90%. Further, the “Post-emergence effect at 80 g/ha against DIGSA in %” value in assay [5] (80 g/ha) is 90%. In addition, in assay [6], the “Pre-emergence effect at 80 g/ha against ECHCG in %” value is listed as 100%. The “Pre-emergence effect at 20 g/ha against AMARE in %” value in assay [7] (20 g/ha) amounted to 90%. The “Pre-emergence effect at 80 g/ha against AMARE in %” value in assay [7] (80 g/ha) amounted to 100%. Moreover, the “Pre-emergence effect at 80 g/ha against SETVI in %” value in assay [8] came out at 90%. Also, the “Post-emergence effect at 20 g/ha against KCHSC in %” value in assay [9] (20 g/ha) is given as 90%. In assay [9] (80 g/ha), the “Post-emergence effect at 80 g/ha against KCHSC in %” value is given as 100%. Moreover, in assay [10], the “Pre-emergence effect at 80 g/ha against ABUTH in %” value came out at 100%. In addition, in [11], the “Post-emergence effect at 80 g/ha against ABUTH in %” value is reported as 80%. In addition, in assay [12], the “Pre-emergence effect at 80 g/ha against POLCO in %” value was determined as 100%. For the same compound, the “Pre-emergence effect at 20 g/ha against KCHSC in %” value in assay [13] (20 g/ha) came to 90%. In addition, the “Pre-emergence effect at 80 g/ha against KCHSC in %” value in assay [13] (80 g/ha) came to 90%. In addition, the “Pre-emergence effect at 20 g/ha against DIGSA in %” value in assay [14] (20 g/ha) turned out to be 90%. The “Pre-emergence effect at 80 g/ha against DIGSA in %” value in assay [14] (80 g/ha) worked out at 100%.
